From US8933070B2, “Methods of targeting PTEN mutant diseases and compositions therefor” (University Health Network, priority 2010, dated 2015)
Where two headings read alike, the source gives them in different places.

Assays:
Aurora A = target: T1, Aurora A (Homo sapiens, UniProt O14965); experiment: Aurora A inhibition assay (Z-Lyte); type: biochemical
T1 construct: purchased Invitrogen PV3612
T1 sequence (O14965 1-403): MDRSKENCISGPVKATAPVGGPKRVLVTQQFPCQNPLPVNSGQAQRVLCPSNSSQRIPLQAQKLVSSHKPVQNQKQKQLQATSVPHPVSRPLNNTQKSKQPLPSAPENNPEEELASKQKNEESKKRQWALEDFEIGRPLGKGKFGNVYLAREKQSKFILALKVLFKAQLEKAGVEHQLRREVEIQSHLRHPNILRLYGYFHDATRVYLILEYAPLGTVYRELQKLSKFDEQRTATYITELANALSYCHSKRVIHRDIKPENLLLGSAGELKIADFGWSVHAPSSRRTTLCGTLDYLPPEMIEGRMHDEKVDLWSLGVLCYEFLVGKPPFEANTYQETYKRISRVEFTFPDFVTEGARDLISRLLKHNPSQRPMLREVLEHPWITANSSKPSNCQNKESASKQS
Protocol: Aurora A inhibition was determined using the Z-Lyte assay kit from Invitrogen. The assay was performed using the recommended manufacturer's instructions with 20 nM ATP and 12 nM Aurora A (Invitrogen cat #PV3612). The % inhibition values were determined according to the manufacturer's directions and IC50 values were obtained using a non-linear 4 point logistic curve fit (XLfit4, IDBS)

Syk = Syk (Homo sapiens, UniProt P43405); experiment: Kinase selectivity assay (CEREP, HTRF); type: biochemical; details: read-out: % Inhibition at 10 μM Concentration
Protocol: (§1) The inhibitory activity of selected compounds was evaluated against a panel of 45 different kinase enzymes by CEREP, France. The assays were performed using standard HTRF assay methods as documented by CEREP against the human orthologues of Abl kinase, Akt1/PKBa, AMPKa, BMX kinase (Etk), Brk, CaMK2a, CaMK4, CDC2/CDK1 (cycB), CHK1, CHK2, c-Met kinase, CSK, EphB4 kinase, ERK1, ERK2 (P42mapk), FGFR2 kinase, FGFR4 kinase, FLT-1 kinase (VEGFR1), FLT-3 kinase, Fyn kinase, IGF1R kinase, IRK (InsR), JNK 2, KDR kinase (VEGFR2), Lck kinase, Lyn kinase, MAPKAPK2, MEK1/MAP2K1, p38a kinase, p38d kinase, p38g kinase, PDGFRb kinase, PDK1, PKA, PKCa, PKCb1, PKCb2, PKCg, Ret kinase, ROCK2, RSK2, Src kinase, Syk, and TRKA. The % Inhibition was determined by the formula; % Inhibition=100×(1−(experimental value−background value)/(high activity control−background value)).

[1] = test system: A549 lung cancer cell line; experiment: Cell growth inhibition, Sulforhodamine B (SRB) assay; type: cell-based; details: Homo sapiens, A549, 120 h, read-out: Cell Line GI50 Range A549
Protocol: (§2) Aliquots (20 μl) from each concentration were overlaid to 80 μl of the pre-seeded cells in the 96-plates to make final concentrations of 10 nM to 50 μM. The cells were cultured for 5 days before the Sulforhodamine B (SRB) assay was performed to determine the compound's cell growth inhibition activity.
(§3) Sulforhodamine B (Sigma, Canada) is a water-soluble dye that binds to the basic amino acids of cellular proteins. Thus, colorimetric measurement of the bound dye provides an estimate of the total protein mass that is related to the cell number. The cells are fixed in situ by gently aspirating off the culture media and adding 50 μl ice cold 10% Trichloroacetic Acid (TCA) per well and incubated at 4° C. for 30-60 min. The plates are washed with water five times and allowed to air dry for 5 min. Addition of 50 μl 0.4% (w/v) SRB solution in 1% (v/v) acetic acid to each well and incubatation for […] at RT completes the staining reaction. Following staining, plates are washed four times with 1% acetic acid to remove unbound dye and then allowed to air dry for 5 min. […] Absorbance is read at 570 nm.
(§4) The percentage (%) of relative growth inhibition was calculated by comparing to DMSO-treated only cells (100%). GI50's were determined for compounds with cytotoxic activity. The GI50 was calculated using GraphPad PRISM software (GraphPad Software, Inc., USA).

[2] = test system: human mammary epithelial primary cells (HMEC); experiment: as above; type: cell-based; details: 120 h, read-out: Cell Line GI50 Range HMEC
Protocol: as §2, §3, §4

[3] = test system: MCF-7 luminal breast cancer cell line; experiment: as above; type: cell-based; details: Homo sapiens, MCF7, 120 h, read-out: Cell Line GI50 Range MCF-7
Protocol: as §2, §3, §4

[4] = test system: SW620 colon cancer cell line; experiment: as above; type: cell-based; details: Homo sapiens, SW-620, 120 h, read-out: Cell Line GI50 Range SW620
Protocol: as §2, §3, §4

PKCbeta 2 = PKCbeta 2 (Homo sapiens, UniProt P05771); experiment: Kinase selectivity assay (CEREP, HTRF); type: biochemical; details: read-out: % Inhibition at 10 μM Concentration
Protocol: as §1

ERK (P42mapk) = ERK (P42mapk) (Homo sapiens, UniProt P28482); experiment: Kinase selectivity assay (CEREP, HTRF); type: biochemical; details: read-out: % Inhibition at 10 μM Concentration
Protocol: as §1

p38delta = p38delta (Homo sapiens, UniProt O15264); experiment: Kinase selectivity assay (CEREP, HTRF); type: biochemical; details: read-out: % Inhibition at 10 μM Concentration
Protocol: as §1

CDC2/CDK1 = CDC2/CDK1 (Homo sapiens, UniProt P06493); experiment: Kinase selectivity assay (CEREP, HTRF); type: biochemical; details: read-out: % Inhibition at 10 μM Concentration
Protocol: as §1

CHK1 = CHK1 (Homo sapiens, UniProt O14757); experiment: Kinase selectivity assay (CEREP, HTRF); type: biochemical; details: read-out: % Inhibition at 10 μM Concentration
Protocol: as §1

EphB4 = EphB4 (Homo sapiens, UniProt P54760); experiment: Kinase selectivity assay (CEREP, HTRF); type: biochemical; details: read-out: % Inhibition at 10 μM Concentration
Protocol: as §1

Src = Src (Homo sapiens, UniProt P12931); experiment: Kinase selectivity assay (CEREP, HTRF); type: biochemical; details: read-out: % Inhibition at 10 μM Concentration
Protocol: as §1

FGFR4 = FGFR4 (Homo sapiens, UniProt P22455); experiment: Kinase selectivity assay (CEREP, HTRF); type: biochemical; details: read-out: % Inhibition at 10 μM Concentration
Protocol: as §1

JNK 2 = JNK 2 (Homo sapiens, UniProt P45984); experiment: Kinase selectivity assay (CEREP, HTRF); type: biochemical; details: read-out: % Inhibition at 10 μM Concentration
Protocol: as §1

Abl kinase = Abl kinase (Homo sapiens, UniProt P00519); experiment: Kinase selectivity assay (CEREP, HTRF); type: biochemical; details: read-out: % Inhibition at 10 μM Concentration
Protocol: as §1

Akt1/PKBalpha = Akt1/PKBalpha (Homo sapiens, UniProt P31749); experiment: Kinase selectivity assay (CEREP, HTRF); type: biochemical; details: read-out: % Inhibition at 10 μM Concentration
Protocol: as §1

c-Met = c-Met (Homo sapiens, UniProt P08581); experiment: Kinase selectivity assay (CEREP, HTRF); type: biochemical; details: read-out: % Inhibition at 10 μM Concentration
Protocol: as §1

Src, sequence (P12931 whole entry): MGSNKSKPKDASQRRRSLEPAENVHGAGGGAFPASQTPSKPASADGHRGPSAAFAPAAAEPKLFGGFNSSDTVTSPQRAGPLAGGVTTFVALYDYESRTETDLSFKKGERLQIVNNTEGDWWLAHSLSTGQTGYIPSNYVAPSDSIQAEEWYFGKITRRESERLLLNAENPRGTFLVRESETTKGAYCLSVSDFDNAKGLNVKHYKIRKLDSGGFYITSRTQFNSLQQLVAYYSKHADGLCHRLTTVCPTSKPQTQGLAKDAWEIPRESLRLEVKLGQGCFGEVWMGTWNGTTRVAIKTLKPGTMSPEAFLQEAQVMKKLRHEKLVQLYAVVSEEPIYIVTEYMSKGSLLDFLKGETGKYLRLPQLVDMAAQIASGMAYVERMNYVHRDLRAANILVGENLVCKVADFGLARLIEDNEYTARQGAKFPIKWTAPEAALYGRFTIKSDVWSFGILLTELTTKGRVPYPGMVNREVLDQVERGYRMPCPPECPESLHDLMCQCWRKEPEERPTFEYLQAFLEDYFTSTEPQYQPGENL
CHK1, sequence (O14757 whole entry): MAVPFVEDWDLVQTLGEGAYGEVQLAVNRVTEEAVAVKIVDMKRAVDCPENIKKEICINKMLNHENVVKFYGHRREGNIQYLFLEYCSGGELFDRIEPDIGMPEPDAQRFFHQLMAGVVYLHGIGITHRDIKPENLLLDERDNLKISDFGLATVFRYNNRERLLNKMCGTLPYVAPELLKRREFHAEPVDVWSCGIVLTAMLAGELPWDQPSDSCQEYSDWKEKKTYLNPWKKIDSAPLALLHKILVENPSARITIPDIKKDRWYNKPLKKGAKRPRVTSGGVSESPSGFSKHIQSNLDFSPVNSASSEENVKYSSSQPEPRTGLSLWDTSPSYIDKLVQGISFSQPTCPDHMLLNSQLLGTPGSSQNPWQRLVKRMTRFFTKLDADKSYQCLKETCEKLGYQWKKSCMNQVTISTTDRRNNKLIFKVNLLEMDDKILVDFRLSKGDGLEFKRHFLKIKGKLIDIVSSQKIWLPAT
p38delta, sequence (O15264 whole entry): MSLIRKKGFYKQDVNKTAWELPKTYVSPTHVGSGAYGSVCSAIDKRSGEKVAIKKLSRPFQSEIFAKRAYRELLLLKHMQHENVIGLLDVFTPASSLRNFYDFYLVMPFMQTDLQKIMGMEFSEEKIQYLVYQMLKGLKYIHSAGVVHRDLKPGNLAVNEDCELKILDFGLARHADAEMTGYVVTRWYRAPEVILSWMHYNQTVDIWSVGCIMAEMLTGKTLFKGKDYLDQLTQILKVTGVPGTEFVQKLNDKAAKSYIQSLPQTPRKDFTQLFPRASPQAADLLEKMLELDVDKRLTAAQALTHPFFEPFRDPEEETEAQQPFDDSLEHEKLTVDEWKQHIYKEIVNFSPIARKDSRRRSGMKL
ERK (P42mapk), sequence (P28482 whole entry): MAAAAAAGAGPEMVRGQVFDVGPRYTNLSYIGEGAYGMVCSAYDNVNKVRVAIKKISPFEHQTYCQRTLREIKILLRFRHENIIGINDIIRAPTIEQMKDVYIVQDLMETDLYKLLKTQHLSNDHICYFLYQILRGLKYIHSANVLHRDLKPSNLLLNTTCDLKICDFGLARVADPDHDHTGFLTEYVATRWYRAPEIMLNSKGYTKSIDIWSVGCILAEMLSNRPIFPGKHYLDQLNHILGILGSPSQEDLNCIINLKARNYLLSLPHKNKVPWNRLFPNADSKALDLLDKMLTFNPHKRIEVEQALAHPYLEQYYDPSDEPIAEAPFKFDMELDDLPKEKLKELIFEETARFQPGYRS
Abl kinase, sequence (P00519 whole entry): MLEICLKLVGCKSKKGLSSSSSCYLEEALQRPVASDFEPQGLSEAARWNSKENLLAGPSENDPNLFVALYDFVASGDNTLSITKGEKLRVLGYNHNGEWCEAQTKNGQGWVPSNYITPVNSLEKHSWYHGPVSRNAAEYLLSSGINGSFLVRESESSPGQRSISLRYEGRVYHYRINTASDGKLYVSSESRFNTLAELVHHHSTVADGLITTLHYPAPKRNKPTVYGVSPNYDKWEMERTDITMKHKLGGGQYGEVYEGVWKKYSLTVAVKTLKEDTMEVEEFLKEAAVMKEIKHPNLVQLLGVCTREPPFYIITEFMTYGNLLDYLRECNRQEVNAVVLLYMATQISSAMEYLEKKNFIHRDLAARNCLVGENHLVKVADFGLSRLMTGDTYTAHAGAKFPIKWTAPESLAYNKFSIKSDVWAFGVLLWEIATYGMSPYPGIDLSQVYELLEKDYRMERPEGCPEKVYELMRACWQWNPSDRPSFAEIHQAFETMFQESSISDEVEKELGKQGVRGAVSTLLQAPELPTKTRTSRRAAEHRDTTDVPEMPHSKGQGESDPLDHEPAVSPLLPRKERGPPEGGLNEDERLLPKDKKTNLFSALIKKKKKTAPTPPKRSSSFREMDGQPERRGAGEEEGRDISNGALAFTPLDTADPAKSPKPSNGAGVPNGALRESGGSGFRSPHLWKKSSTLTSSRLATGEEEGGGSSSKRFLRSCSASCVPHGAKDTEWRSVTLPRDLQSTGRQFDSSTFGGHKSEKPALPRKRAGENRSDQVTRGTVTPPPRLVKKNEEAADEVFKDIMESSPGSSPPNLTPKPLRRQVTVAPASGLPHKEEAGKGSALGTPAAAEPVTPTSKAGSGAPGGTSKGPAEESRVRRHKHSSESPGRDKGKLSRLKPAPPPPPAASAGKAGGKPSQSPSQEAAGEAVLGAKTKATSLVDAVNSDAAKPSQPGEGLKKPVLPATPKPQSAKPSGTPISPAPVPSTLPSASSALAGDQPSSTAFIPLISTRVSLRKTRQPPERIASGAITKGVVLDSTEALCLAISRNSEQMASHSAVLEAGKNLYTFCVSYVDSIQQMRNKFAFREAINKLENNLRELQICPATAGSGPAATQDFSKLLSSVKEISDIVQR
FGFR4, sequence (P22455 22-802): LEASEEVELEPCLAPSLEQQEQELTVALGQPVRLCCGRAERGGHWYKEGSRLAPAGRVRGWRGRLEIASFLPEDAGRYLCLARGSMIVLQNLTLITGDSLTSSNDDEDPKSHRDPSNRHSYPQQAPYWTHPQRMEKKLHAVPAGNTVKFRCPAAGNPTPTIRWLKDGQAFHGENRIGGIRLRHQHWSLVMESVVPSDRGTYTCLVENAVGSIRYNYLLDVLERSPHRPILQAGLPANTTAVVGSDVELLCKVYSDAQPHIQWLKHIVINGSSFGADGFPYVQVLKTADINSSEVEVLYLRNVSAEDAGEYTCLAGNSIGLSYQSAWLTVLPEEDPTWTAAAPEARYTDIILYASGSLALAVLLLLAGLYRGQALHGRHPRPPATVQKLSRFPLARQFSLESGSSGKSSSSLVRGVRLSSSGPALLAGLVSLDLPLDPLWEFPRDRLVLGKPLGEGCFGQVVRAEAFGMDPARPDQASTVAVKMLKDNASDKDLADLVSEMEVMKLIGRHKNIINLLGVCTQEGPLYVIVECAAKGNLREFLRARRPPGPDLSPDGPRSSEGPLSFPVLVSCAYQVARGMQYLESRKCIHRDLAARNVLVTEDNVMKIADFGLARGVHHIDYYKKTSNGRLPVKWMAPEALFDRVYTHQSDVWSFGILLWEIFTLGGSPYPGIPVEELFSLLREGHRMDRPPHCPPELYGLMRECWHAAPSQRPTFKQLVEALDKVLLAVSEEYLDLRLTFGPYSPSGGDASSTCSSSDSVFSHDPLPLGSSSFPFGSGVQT
JNK 2, sequence (P45984 whole entry): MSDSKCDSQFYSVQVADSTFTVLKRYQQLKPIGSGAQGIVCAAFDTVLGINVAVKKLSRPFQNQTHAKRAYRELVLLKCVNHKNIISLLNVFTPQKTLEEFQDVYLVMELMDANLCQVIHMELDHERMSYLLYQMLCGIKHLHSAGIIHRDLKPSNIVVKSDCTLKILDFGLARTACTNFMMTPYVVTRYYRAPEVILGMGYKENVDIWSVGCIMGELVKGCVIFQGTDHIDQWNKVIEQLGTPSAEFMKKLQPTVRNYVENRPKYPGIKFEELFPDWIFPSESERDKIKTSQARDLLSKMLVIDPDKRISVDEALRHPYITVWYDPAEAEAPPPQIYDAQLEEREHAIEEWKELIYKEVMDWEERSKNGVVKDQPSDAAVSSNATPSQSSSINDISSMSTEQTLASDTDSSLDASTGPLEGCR
PKCbeta 2, sequence (P05771 1-673 isoform P05771-2): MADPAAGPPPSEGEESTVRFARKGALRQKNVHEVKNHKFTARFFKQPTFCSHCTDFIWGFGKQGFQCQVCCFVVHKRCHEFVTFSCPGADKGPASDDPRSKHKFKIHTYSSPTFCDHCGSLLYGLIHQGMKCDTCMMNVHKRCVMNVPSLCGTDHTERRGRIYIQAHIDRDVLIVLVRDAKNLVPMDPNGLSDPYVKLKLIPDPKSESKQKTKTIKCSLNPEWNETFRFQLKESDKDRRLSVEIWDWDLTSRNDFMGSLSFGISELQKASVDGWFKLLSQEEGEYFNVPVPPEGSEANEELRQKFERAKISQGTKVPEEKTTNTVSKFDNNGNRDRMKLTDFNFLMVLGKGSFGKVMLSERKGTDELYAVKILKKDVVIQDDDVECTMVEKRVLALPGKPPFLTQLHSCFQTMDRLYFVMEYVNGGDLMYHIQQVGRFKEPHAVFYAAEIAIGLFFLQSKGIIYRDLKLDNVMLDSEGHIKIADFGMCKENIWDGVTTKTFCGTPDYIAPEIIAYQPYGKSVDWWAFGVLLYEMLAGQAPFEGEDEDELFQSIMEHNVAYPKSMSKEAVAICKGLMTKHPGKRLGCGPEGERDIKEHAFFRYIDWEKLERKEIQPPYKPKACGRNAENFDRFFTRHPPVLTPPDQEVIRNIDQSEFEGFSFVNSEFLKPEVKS

Row | Compound | inhibition at 10 µM (Aurora A; dose of 10 μM, read-out: Aurora A relative inhibition percentage) | inhibition at 10 µM (Syk) | GI50 [1] | GI50 [2] | GI50 [3] | GI50 [4] | inhibition at 10 µM (PKCbeta 2) | inhibition at 10 µM (ERK (P42mapk)) | inhibition at 10 µM (p38delta) | inhibition at 10 µM (CDC2/CDK1) | inhibition at 10 µM (CHK1) | inhibition at 10 µM (EphB4) | inhibition at 10 µM (Src) | inhibition at 10 µM (FGFR4) | inhibition at 10 µM (JNK 2) | inhibition at 10 µM (Abl kinase) | inhibition at 10 µM (Akt1/PKBalpha) | inhibition at 10 µM (c-Met) | IC50 (Aurora A; read-out: IC50 Ranges Aurora A) | inhibition at 10 µM (Syk; Syk, 10 μM)
1 | COc1ccc2c(c1)[C@@]1(C[C@@H]1c1ccc3c(-c4ccc(N5CCN(C)CC5)nc4)n[nH]c3c1)C(=O)N2 (racemic) [Compound 2] | < 50% | -1% | < 5 µM | 20 to 50 µM | < 5 µM | < 5 µM | – | – | – | – | – | – | – | – | – | – | – | – | – | –
2 | CN(C)Cc1ccc(/C=C/c2n[nH]c3cc([C@H]4C[C@@]45C(=O)Nc4ccccc45)ccc23)cc1 (racemic) [Compound 35] | – | – | < 5 µM | 5 to 20 µM | < 5 µM | < 5 µM | 26% | 2% | 5% | 60% | 43% | 65% | 51% | -12% | 5% | 100% | -4% | 61% | – | –
3 | COc1ccc2c(c1)/C(=C\c1ccc3c(/C=C/c4ccc(N5CCN(C)CC5)nc4)n[nH]c3c1)C(=O)N2 [Compound 3] | – | – | – | – | – | – | 4% | 15% | -2% | 11% | 0% | -1% | 26% | -30% | 15% | 23% | -5% | 2% | < 5 µM | -1%
